Tested on: primary mouse B-cells
Assay: Primary B-cell activation (CD86+ FACS) in response to LPS
Assay type: cell-based
Conditions: Mus musculus, B-cell, 10 μM, 2 hours pre-incubation
Description: Compounds Block Activation of Primary Mouse B-Cells:
JNK is known to mediate activation of B-cells in response to lypopolysacharide (LPS) through the TLR4 signaling pathway as well as in response to B-cell receptor activation (stimulated e.g. with an anti-IgM antibody). Primary B-cells were isolated from the spleen of mice and assessed for their B-cell activation, via FACS analysis of CD86+ expression, in response to LPS in the presence or absence of the covalent MKK7 enzyme inhibitors presented herein, as well as a positive control JNK inhibitor, JNK-IN-8.
At 10 μM and 2 hours pre-incubation before stimulation, GO80 was able to inhibit 60% of the CD86+ response.

SMILES: C=CC(=O)Nc1cccc(-c2n[nH]c3cc(C)ccc23)c1 [GO80]
- inhibition at 10 µM: 60%

From patent publication US20210238173A1, “MITOGEN-ACTIVATED PROTEIN KINASE KINASE 7 INHIBITORS” (Yeda Research and Development Co. Ltd., priority 2018, published 2021)
